# “And” between values parts separate entries of the source, which are not always exact repeats. Equal entries are not always repeated.
# System: 786-0 complex spheroid viability
# Assay: Anticancer human tumor 786-0 cell line growth inhibition;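 also: spheroids exposed to agents for seven days before readout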
# Conditions: for viability, T/C: stronger effect = lower value
# In short: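 Complex spheroids of tumor cells with HUVEC and human MSCs, exposed to iadademstat combined with other agents. Each agent tested in half-log steps from near clinical Cmax (else 10 microM top), DMSO ≤0.25%.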
# [1] = curve of first compound, second compound 0.1 µM
# [2] = curve of first compound, second compound 0.316 µM
# [3] = curve of first compound, second compound 1 µM
# [4] = curve of first compound, second compound 3.16 µM
# [5] = curve of first compound, second compound 10 µM
# [6] = second compound 0.1 µM, first compound 0.0316 µM
# [7] = second compound 0.1 µM, first compound 0.1 µM
# [8] = second compound 0.1 µM, first compound 0.316 µM
# [9] = second compound 0.1 µM, first compound 1 µM
# [10] = second compound 0.316 µM, first compound 0.0316 µM
# [11] = second compound 0.316 µM, first compound 0.1 µM
# [12] = second compound 0.316 µM, first compound 0.316 µM
# [13] = second compound 0.316 µM, first compound 1 µM
# [14] = second compound 1 µM, first compound 0.0316 µM
# [15] = second compound 1 µM, first compound 0.1 µM
# [16] = second compound 1 µM, first compound 0.316 µM
# [17] = second compound 1 µM, first compound 1 µM
# [18] = second compound 3.16 µM, first compound 0.0316 µM
# [19] = second compound 3.16 µM, first compound 0.1 µM
# [20] = second compound 3.16 µM, first compound 0.316 µM
# [21] = second compound 3.16 µM, first compound 1 µM
# [22] = second compound 10 µM, first compound 0.0316 µM
# [23] = second compound 10 µM, first compound 0.1 µM
# [24] = second compound 10 µM, first compound 0.316 µM
# [25] = second compound 10 µM, first compound 1 µM
SMILES,IC50 [1],IC50 [2],IC50 [3],IC50 [4],IC50 [5],"viability, T/C [6]","viability, T/C [7]","viability, T/C [8]","viability, T/C [9]","viability, T/C [10]","viability, T/C [11]","viability, T/C [12]","viability, T/C [13]","viability, T/C [14]","viability, T/C [15]","viability, T/C [16]","viability, T/C [17]","viability, T/C [18]","viability, T/C [19]","viability, T/C [20]",other results
CC1COCCN1c1cc(-c2ccnn2C)c2ccnc(-c3ccn[nH]3)c2n1 (configuration not stated) + NC1CC1c1ccc(-c2cccc(O)c2)cc1,47.9 nM,45.3 nM,44.1 nM,30.7 nM,17.4 nM,63.8%,25.9%,16.2%,17.9%,62.5%,22.7%,15%,17.3%,61.5%,22.6%,15.8%,17%,48.2%,23.1%,15%,"viability, T/C (second compound 0.1 µM, first compound 0.00316 µM): 119%; viability, T/C (second compound 0.1 µM, first compound 0.01 µM): 108%; viability, T/C (second compound 0.316 µM, first compound 0.00316 µM): 115%; viability, T/C (second compound 0.316 µM, first compound 0.01 µM): 107%; viability, T/C (second compound 1 µM, first compound 0.00316 µM): 111%; viability, T/C (second compound 1 µM, first compound 0.01 µM): 111%; viability, T/C (second compound 3.16 µM, first compound 0.00316 µM): 112%; viability, T/C (second compound 3.16 µM, first compound 0.01 µM): 98.5%; viability, T/C [21]: 18.4%; viability, T/C (second compound 10 µM, first compound 0.00316 µM): 103%; viability, T/C (second compound 10 µM, first compound 0.01 µM): 70.2%; viability, T/C [22]: 28.4%; viability, T/C [23]: 17%; viability, T/C [24]: 12.9%; viability, T/C [25]: 19.6%"
COc1cc(C2c3cc4c(cc3C(OC3OC5COC(C)OC5C(O)C3O)C3COC(=O)C23)OCO4)cc(OC)c1O (configuration not stated),,,,,,,,,,,,,,,,,,,,,"viability, T/C (compound 0.00949 µM): 103% and 96%; viability, T/C (compound 0.03 µM): 96.4% and 94.6%; viability, T/C (compound 0.0949 µM): 63.6% and 72.1%; viability, T/C (compound 0.3 µM): 49.5% and 53.4%; viability, T/C (compound 0.949 µM): 23.1% and 38.4%; viability, T/C (compound 3 µM): 11.1% and 21.9%; IC50 (curve of compound): 241 nM and 396 nM"
CC1COCCN1c1cc(C2(S(C)(=N)=O)CC2)nc(-c2ccnc3[nH]ccc23)n1 (configuration not stated) + NC1CC1c1ccc(-c2cccc(O)c2)cc1,943 nM,1020 nM,933 nM,819 nM,751 nM,99.5%,107%,89.1%,47.4%,114%,110%,98.8%,49.7%,101%,102%,88%,46.4%,94.5%,101%,86%,"viability, T/C (second compound 0.1 µM, first compound 3.16 µM): 22.8%; viability, T/C (second compound 0.1 µM, first compound 10 µM): 14.4%; viability, T/C (second compound 0.316 µM, first compound 3.16 µM): 22.7%; viability, T/C (second compound 0.316 µM, first compound 10 µM): 14.8%; viability, T/C (second compound 1 µM, first compound 3.16 µM): 22.9%; viability, T/C (second compound 1 µM, first compound 10 µM): 12.8%; viability, T/C [21]: 41.8%; viability, T/C (second compound 3.16 µM, first compound 3.16 µM): 22.9%; viability, T/C (second compound 3.16 µM, first compound 10 µM): 14.6%; viability, T/C [22]: 99%; viability, T/C [23]: 95.2%; viability, T/C [24]: 81.3%; viability, T/C [25]: 38.1%; viability, T/C (second compound 10 µM, first compound 3.16 µM): 25.6%; viability, T/C (second compound 10 µM, first compound 10 µM): 13.4%"

# Reference: PubChem BioAssay AID1918944 (Molecular Pharmacology Branch, DTP, NCI, 2023)
